Reference: patent publication US8729286B2, “Platinum compounds as treatment for cancers, and related methods, kits, and compositions” (Massachusetts Institute of Technology, priority 2012, dated 2014)
Entries after “also recorded” stand apart in the source; their conditions may differ.

Key:
[1] = tested on: MCF-7 (human breast cancer); test: MTT cytotoxicity assay, MCF-7; assay type: cell-based; details: continuous 72 h
Method: (§1) The cells were treated for a continuous 72 h period. The resulting 50% growth inhibitory concentration (IC50) values are summarized in Table 4 and graphically depicted in FIG. 5.
(§2) HeLa (human cervical cancer), A549 (human lung cancer), U2OS (osteosarcoma), MCF-7 (human breast cancer) cells were grown as adherent monolayers in growth medium consisting of Dulbecco's Modified Eagle Medium (DMEM) supplemented with 10% fetal bovine serum (FBS) and 1% penicillin/streptomycin. The cultures were grown in 25 cm^2 flasks in an incubator at 37° C. with a humidified atmosphere composed of 5% CO2.
(§3) Trypsinized cells were seeded into a 96-well plate at a cell density of 2000 cells/well in 200 μL of growth medium and incubated for 24 h. The medium was then removed and 200 μL new growth medium containing various concentrations of the platinum complexes was added. After 72 h, the medium was removed, 200 μL of a 0.8 mg/mL solution of MTT in DMEM was added, and the plate was incubated further for 4 h. The DMEM/MTT mixture was aspirated and 200 μL of DMSO with 10% pH 10.5 glycine buffer was added to dissolve the resulting purple formazan crystals. The absorbance of the plates was read at 555 nm. Absorbance values were normalized to the platinum-free control wells and plotted as [Pt] versus % viability. IC50 values were interpolated from the resulting curves. The reported IC50 values are the averages from at least three independent experiments, which each consisted of six replicates per concentration level.

HeLa cells = test: Cellular uptake in HeLa cells by GFAAS; assay type: cell-based, human; details: 10 μM, 4 h exposure
Method: The cellular uptake scales with the lipophilicity of the compound in an exponential fashion (FIG. 6). The most lipophilic complex, 5, is taken up to the largest extent (520±80 ng Pt/10^6 cells), whereas the least lipophilic complex is taken up to the least extent (6±2 ng Pt/10^6 cells).
The total platinum uptake per cell was determined using slight modifications of a previously described protocol. In two 6-well plates, 3×10^5 cells per well were seeded in 3 wells with 2.5 mL of growth medium. In one of the plates, the additional 3 wells were filled with 2.5 mL of growth medium to act as blanks for non-specific platinum adsorption on the surface of the well. After incubating for 48 h, each well in the plate containing both cells and cell-free medium was treated with 0.278 mL of a 100-μM solution of the desired compound to give an exposure concentration of 10 μM. The cells and cell-free blanks were incubated with the Pt complex for 4 h. Meanwhile, the cells in the other plate were counted with trypan blue after detachment with trypsin in order to obtain the number of cells per well. After the 4 h incubation period, the growth medium was aspirated and all six wells were washed twice with 3 mL of pH 7.4 PBS and then treated with exactly 0.5 mL of hot (≈90° C.) concentrated nitric acid for 2 h. This nitric acid was analyzed by GFAAS to determine the total Pt content per well. The amount of Pt per cell was calculated by subtracting the average amount of Pt found in the blank wells from the average amount of Pt found in the cell-containing wells and normalizing to the average number of cells per well.

[2] = tested on: U2OS (human osteosarcoma); test: MTT cytotoxicity assay, U2OS; assay type: cell-based; details: continuous 72 h
Method: as §1, §2, §3

[3] = Solution stability in pH 7.4 PBS at 37° C. by NMR spectroscopy; assay type: physicochemical; details: for stability in pH 7.4 PBS (1H NMR spectra): up to 25 days; for half-life of decomposition in pH 7.4 PBS: NMR, first-order fit
Method: (§4) The stabilities of 1-5 in water and pH 7.4 phosphate buffered saline (PBS) at 37° C. were determined by NMR spectroscopy. […] Over the course of this reaction, the pH changed from 7.5 to 6.3. For 4, the rate of decomposition was quicker. […] The pH of this solution remained at 7.5 for the duration of the experiment.
In pH 7.4 PBS, the rates of decomposition increased. The half-lives of 2 and 4 in this medium were 3.4 and 1.8 days, respectively. For 4, the final product was the same as that observed in the aquation in non-buffered water characterized by a ^19F NMR chemical shift at −76.6 ppm. […] Although the major final product was the same as that observed for the aquation in pure water (^1H δ=2.22 ppm), two other minor products were observed by ^1H NMR spectroscopy with CH3 proton resonances at 1.91 and 1.56 ppm.
(§5) The platinum complexes were dissolved in water or pH 7.4 PBS containing 10% D2O to a typical concentration of 1 mM. The solutions were transferred to NMR tubes and incubated in a 37° C. water bath. ^1H and ^19F NMR spectra were obtained at various type points during the incubation. A small amount of 1,4-dioxane (δ=3.75 ppm) was included in the samples as an internal standard for referencing the ^1H NMR spectra and a sealed capillary containing aqueous KF (δ=−120.46 ppm) was used for referencing ^19F NMR spectra. The methyl group of 2 in the ^1H NMR spectra was integrated relative to the 1,4-dioxane reference at different time points and used for kinetic analyses. The trifluoromethyl group of 4 in the ^19F NMR spectra was integrated relative to the KF standard at different time points and used for kinetic analyses. Under the assumption of first-order kinetics, approximate half-lives were determined by fitting a line to a plot of ln [Pt] versus time and using the integrated first-order rate law, ln [Pt]=−kt+[Pt]o and the relationship, t1/2=ln 2/k, where [Pt]c, is the starting concentration of complex, k is the pseudo first-order rate constant, t is time, and t1/2 is the half-life. Water suppression for ^1H NMR spectra was accomplished with presaturation. The pH of the solutions was measured at the beginning and end of the desired incubation time using a DG-111-SG glass electrode calibrated with standard buffers.

[4] = Solution stability in water at 37° C. by NMR spectroscopy; assay type: physicochemical; details: for stability in water (1H NMR spectra): up to 25 days; for half-life of decomposition in water: NMR, first-order fit
Method: as §4, §5

[5] = tested on: HeLa (human cervical cancer); test: MTT cytotoxicity assay, HeLa; assay type: cell-based; details: continuous 72 h
Method: as §1, §2, §3

[6] = tested on: nuclear DNA of HeLa cells; test: Intracellular DNA platination in HeLa cells by GFAAS; assay type: cell-based, human; details: 100 μM for 4 h, then 16 h platinum-free medium
Method: Because platinum-based drugs exert their cytotoxic effects by the formation of DNA cross-links, the extent to which 1-5 bind to intracellular DNA was measured. Cells were treated with 100 μM of the platinum complexes for 4 h and then incubated for an additional 16 h in platinum-free growth medium. The nuclear DNA was isolated, and the quantity of bound platinum was measured by GFAAS.
Five million HeLa cells were seeded in a 100 mm Petri dish containing 9 mL of growth medium. On the following day, the cells were treated with the platinum complex at 100 μM concentration for 4 h. The growth medium was then replaced with platinum-free medium, and the cells were incubated for an additional 16 h. Cells, both floating and attached, were collected and combined. Trypsin (2 mL) was used to detach the cells. The combined cells were centrifuged for 5 min at 4° C., and the resulting cell pellet was washed twice with 3 mL of ice-cold PBS. DNAzol (1 mL, genomic DNA isolation reagent, MRC), containing 100 μg/mL RNase A, was used to lyse the cell pellet. DNA was precipitated with 0.5 mL of absolute ethanol, washed 2 times with 75% ethanol (0.75 mL), and redissolved in 200 μL of 8 mM NaOH. The DNA concentration was determined by UV-visible spectroscopy, and platinum was quantified by GFAAS. The reported values are the average of at least three independent experiments with the error reported as the standard deviation.

A549 (human lung cancer) = test: MTT cytotoxicity assay, A549; assay type: cell-based; details: continuous 72 h
Method: as §1, §2, §3

Solubility observations = assay type: physicochemical; details: for solubility in water: water (cold water wash)
[7] = tested on: HeLa, A549, U2OS, and MCF-7 cell lines; test: MTT cytotoxicity assay, summary over the four cell lines; assay type: cell-based, human; details: 72 h, mean of HeLa, read-out: average IC50 value in the four cell lines tested
Method: as §1, §2
as §3, with “The reported IC50 values are the averages from at least three independent experiments, which each consisted of six replicates per concentration level.” left out

[8] = tested on: central nervous system (CNS) cancer cell lines; test: NCI-60 tumor cell panel screen, CNS cancer cell lines; assay type: cell-based; details: 10 μM single dose, 48 h, SRB assay
Method: (§6) Compound 4 was submitted to the NCI in July 2011 for single-dose testing in the NCI-60 tumor cell screen. These tests were carried out by the NCI using their established protocols.

[9] = tested on: NCI-60 tumor cell panel (60 cell lines); test: NCI-60 tumor cell panel screen, single dose; assay type: cell-based; details: 10 μM single dose, 48 h, SRB assay, relative to complex-free control
Method: as §6

[10] = up 60 days; cited from earlier work

| Compound | IC50 [1] | HeLa Cellular Uptake (HeLa cells) | IC50 [2] | stability in pH 7.4 PBS (1H NMR spectra) [3] | stability in water (1H NMR spectra) [4] | IC50 [5] | Pt/DNA [6] | IC50 (A549 (human lung cancer)) | half-life of decomposition in pH 7.4 PBS [3] | half-life of decomposition in water [4] | solubility in aqueous and organic solvent (Solubility observations; aqueous and organic solvent) | DNA platination [6] | solubility in water (Solubility observations) | IC50 [7] | average cell growth in CNS cancer cell lines [8] | average cell growth percentage of the 60 cell lines [9] | decomposition in water [10] |
| --- | --- | --- | --- | --- | --- | --- | --- | --- | --- | --- | --- | --- | --- | --- | --- | --- | --- |
| CC1=CC(C)=[O+][Pt-2]([NH3+])([NH3+])[O]1.CC1=CC(C)=[O+][Pt-2]([NH3+])([NH3+])[O]1.O=S(=O)([O-])[O-] (stereo not shown) [Compound 1, [Pt(acac)(NH3)2](SO4)0.5] | 76 ± 2 µM | 6 ± 2 ng Pt/10^6 cells | 24 ± 2 µM | no changes; also recorded: no sign of decomposition | no changes; also recorded: no sign of decomposition | 32 ± 5 µM | 0.063 ± 0.012 pmol/µg | 28 ± 9 µM | – | – | – | – | – | – | – | – | – |
| CC1=CC(C(F)(F)F)=[O+][Pt-2]([NH3+])([NH3+])[O]1.CC1=CC(C(F)(F)F)=[O+][Pt-2]([NH3+])([NH3+])[O]1.O=S(=O)([O-])[O-] (stereo not shown) [Compound 2, [Pt(tfac)(NH3)2](SO4)0.5] | 15 µM | 29 ± 9 ng Pt/10^6 cells | 4.1 ± 0.8 µM | – | – | 2.9 ± 0.7 µM | 0.30 ± 0.07 pmol/µg | 2.2 ± 0.6 µM | 3.4 days | 58 days | low solubility | ≈ 0.3 pmol Pt/μg DNA | – | – | – | – | – |
| CC1=CC(c2ccccc2)=[O+][Pt-2]([NH3+])([NH3+])[O]1.O=[N+]([O-])[O-] (stereo not shown) [Compound 3, [Pt(bzac)(NH3)2](NO3)] | 33 ± 6 µM | 83 ± 8 ng Pt/10^6 cells | 8 ± 2 µM | no changes; also recorded: no sign of decomposition | no changes; also recorded: no sign of decomposition | 24 ± 4 µM | 0.35 ± 0.24 pmol/µg | 7 ± 2 µM | – | – | – | ≈ 0.3 pmol Pt/μg DNA | only sparingly soluble in water | – | – | – | – |
| O=[N+]([O-])[O-].[NH3+][Pt-2]1([NH3+])[O]C(C(F)(F)F)=CC(c2ccccc2)=[O+]1 (stereo not shown) [Compound 4, [Pt(tfbz)(NH3)2](NO3)] | 4.3 ± 0.3 µM | 160 ± 20 ng Pt/10^6 cells | 1.6 ± 0.5 µM | – | – | 3 ± 1 µM | 14 ± 3 pmol/µg | 1.3 ± 0.2 µM | 1.8 days | 29 days | – | – | only sparingly soluble in water | 2.6 µM | 64.52% | 89.65% | – |
| O=[N+]([O-])[O-].[NH3+][Pt-2]1([NH3+])[O]C(c2ccccc2)=CC(c2ccccc2)=[O+]1 (stereo not shown) [Compound 5, [Pt(dbm)(NH3)2](NO3)] | 3.1 ± 0.5 µM | 520±80 ng Pt/10^6 cells | 2.7 ± 0.7 µM | no changes; also recorded: no sign of decomposition | no changes; also recorded: no sign of decomposition | 6.7 ± 0.7 µM | 23 ± 10 pmol/µg | 1.3 ± 0.3 µM | – | – | – | – | – | – | – | – | – |
| N.N.O=C([O-])C1(C(=O)[O-])CCC1.[Pt+2] [carboplatin] | – | – | – | – | – | – | – | – | – | – | – | – | – | – | – | – | no decomposition |
| N.N.[Cl][Pt][Cl] [cisplatin, cis-diamminedichloroplatinum(II), reference compound] | 14 ± 3 µM | 14 ± 2 ng Pt/10^6 cells | 5 ± 2 µM | – | – | 2.1 ± 0.1 µM | 1.58 ± 0.97 pmol/µg | 3.2 ± 0.6 µM | – | – | – | – | – | – | – | – | – |
